Calls of active or inactive are those of the source. The calls are words filed in the database; no cut-off is given here.
What was measured:
Focal adhesion kinase 1 = Focal adhesion kinase 1 (Homo sapiens, UniProt Q05397); experiment: Inhibition of recombinant FAK (unknown origin) by radiometric kinase assay
HCT-116 = experiment: Antiproliferative activity against human HCT-116 cells assessed as growth inhibition measured after 72 hrs by CellTiter-Glo assay; type: functional
MDA-MB-231 = experiment: Antiproliferative activity against human MDA-MB-231 cells assessed as growth inhibition measured after 72 hrs by CellTiter-Glo assay; type: functional
[1] = Antiproliferative activity against human A375P cells assessed as growth inhibition measured after 72 hrs by CellTiter-Glo assay; type: functional
[2] = Metabolic stability in human liver microsomes assessed as compound remaining at 1 uM measured after 1 hr; type: ADME, Microsome; conditions: read-out: Stabilty
CYP1A2 = molecular target: T1, CYP1A2 (Homo sapiens, UniProt P05177); experiment: Inhibition of CYP1A2 (unknown origin) at 10 uM relative to control; type: ADME
T1 sequence (P05177 whole entry): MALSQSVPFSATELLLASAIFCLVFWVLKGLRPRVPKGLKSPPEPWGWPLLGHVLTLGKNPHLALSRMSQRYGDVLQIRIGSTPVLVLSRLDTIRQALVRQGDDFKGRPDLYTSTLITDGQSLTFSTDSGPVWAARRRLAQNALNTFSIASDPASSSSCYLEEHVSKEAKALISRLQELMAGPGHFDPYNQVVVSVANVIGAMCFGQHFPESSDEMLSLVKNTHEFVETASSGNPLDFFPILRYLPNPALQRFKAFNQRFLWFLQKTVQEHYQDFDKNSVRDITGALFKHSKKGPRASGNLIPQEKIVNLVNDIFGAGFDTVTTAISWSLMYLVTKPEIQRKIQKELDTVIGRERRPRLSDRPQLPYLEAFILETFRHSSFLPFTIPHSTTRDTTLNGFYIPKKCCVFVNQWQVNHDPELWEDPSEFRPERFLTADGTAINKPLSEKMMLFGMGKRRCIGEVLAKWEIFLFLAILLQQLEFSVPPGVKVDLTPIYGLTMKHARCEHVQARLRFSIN

CYP2C9 = CYP2C9 (Homo sapiens, UniProt P11712); experiment: Inhibition of CYP2C9 (unknown origin) at 10 uM relative to control; type: ADME
Chain of CYP2C9 (P11712 whole entry): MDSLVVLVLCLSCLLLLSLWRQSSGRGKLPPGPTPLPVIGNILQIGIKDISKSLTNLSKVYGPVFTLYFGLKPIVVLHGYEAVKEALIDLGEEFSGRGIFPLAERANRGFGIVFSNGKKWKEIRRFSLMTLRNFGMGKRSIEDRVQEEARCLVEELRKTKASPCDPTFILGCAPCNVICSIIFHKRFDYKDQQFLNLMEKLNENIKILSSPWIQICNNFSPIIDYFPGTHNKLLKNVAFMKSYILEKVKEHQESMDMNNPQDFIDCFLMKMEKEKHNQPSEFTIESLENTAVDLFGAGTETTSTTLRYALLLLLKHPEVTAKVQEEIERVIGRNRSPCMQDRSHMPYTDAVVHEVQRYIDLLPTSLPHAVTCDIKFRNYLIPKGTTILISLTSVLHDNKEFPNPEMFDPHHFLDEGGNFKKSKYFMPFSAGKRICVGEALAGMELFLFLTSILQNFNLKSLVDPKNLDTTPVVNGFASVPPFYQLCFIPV

CYP2C19 = CYP2C19 (Homo sapiens, UniProt P33261); experiment: Inhibition of CYP2C19 (unknown origin) at 10 uM relative to control; type: ADME
Chain of CYP2C19 (P33261 whole entry): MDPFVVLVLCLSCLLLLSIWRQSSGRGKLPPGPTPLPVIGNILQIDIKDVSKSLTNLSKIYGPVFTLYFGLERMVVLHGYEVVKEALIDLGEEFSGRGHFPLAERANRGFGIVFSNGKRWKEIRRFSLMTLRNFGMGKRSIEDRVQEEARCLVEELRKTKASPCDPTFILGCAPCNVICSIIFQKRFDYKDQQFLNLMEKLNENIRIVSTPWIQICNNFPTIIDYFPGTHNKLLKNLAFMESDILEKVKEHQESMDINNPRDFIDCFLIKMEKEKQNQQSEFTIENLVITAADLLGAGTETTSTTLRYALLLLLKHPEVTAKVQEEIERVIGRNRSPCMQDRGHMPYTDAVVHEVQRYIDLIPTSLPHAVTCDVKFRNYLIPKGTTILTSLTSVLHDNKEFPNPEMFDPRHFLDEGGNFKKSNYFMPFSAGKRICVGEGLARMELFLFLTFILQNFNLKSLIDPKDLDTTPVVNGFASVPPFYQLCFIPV

CYP2D6 = CYP2D6 (Homo sapiens, UniProt P10635); experiment: Inhibition of CYP2D6 (unknown origin) at 10 uM relative to control; type: ADME
Chain of CYP2D6 (P10635 whole entry): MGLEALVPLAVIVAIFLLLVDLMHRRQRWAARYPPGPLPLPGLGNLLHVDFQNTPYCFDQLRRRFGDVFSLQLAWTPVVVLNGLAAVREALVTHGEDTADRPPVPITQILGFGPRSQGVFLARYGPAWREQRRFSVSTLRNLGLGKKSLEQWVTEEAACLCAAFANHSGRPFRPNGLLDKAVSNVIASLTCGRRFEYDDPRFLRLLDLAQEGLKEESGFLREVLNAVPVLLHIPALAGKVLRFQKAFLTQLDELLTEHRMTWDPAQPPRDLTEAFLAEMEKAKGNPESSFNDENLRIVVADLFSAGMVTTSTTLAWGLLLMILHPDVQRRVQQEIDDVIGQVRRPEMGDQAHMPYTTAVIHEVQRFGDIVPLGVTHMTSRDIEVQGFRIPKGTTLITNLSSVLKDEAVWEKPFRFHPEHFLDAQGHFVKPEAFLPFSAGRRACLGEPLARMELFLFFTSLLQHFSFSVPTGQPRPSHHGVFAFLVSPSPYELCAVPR

CYP3A4 = CYP3A4 (Homo sapiens, UniProt P08684); experiment: Inhibition of CYP3A4 (unknown origin) at 10 uM relative to control; type: ADME
Chain of CYP3A4 (P08684 whole entry): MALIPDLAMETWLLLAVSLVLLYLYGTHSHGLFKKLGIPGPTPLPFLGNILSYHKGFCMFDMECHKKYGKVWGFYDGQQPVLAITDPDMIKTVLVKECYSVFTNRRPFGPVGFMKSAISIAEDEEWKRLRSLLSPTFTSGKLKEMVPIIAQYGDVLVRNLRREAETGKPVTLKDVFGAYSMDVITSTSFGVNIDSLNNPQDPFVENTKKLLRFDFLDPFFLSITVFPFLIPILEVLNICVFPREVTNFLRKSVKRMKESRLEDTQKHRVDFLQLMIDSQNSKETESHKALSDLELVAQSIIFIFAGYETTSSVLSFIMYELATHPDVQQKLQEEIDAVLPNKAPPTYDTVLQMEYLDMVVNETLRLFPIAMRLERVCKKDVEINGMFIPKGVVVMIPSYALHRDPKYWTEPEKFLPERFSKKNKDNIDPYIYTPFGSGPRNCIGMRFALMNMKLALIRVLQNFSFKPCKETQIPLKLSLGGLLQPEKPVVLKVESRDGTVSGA

[3] = Inhibition of FLT3 D835Y (unknown origin); parameters: species or system Homo sapiens
BaF3 [4] = experiment: Antiproliferative activity against mouse Ba/F3 cells harbouring FLT3 ITD mutant assessed as growth inhibition measured after 72 hrs by CellTiter-Glo assay; type: functional
BaF3 [5] = experiment: Antiproliferative activity against mouse Ba/F3 cells harbouring FLT3 ITD D835Y mutant assessed as growth inhibition measured after 72 hrs by CellTiter-Glo assay; type: functional
BaF3 [6] = experiment: Antiproliferative activity against mouse Ba/F3 cells harbouring FLT3 D835Y mutant assessed as growth inhibition measured after 72 hrs by CellTiter-Glo assay; type: functional
BaF3 [7] = experiment: Antiproliferative activity against mouse Ba/F3 cells harbouring FLT3 ITD F691L mutant assessed as growth inhibition measured after 72 hrs by CellTiter-Glo assay; type: functional
BaF3 [8] = experiment: Antiproliferative activity against mouse Ba/F3 cells harbouring FLT3 ITD F691I mutant assessed as growth inhibition measured after 72 hrs by CellTiter-Glo assay; type: functional
BaF3 [9] = experiment: Antiproliferative activity against mouse Ba/F3 cells assessed as growth inhibition measured after 72 hrs by CellTiter-Glo assay; type: functional
MV4-11 = experiment: In vivo antitumor activity against human MV4-11 cells xenografted in mouse assessed as tumor weight at 20 mg/kg, po relative to control; type: functional, organism-based
[10] = Inhibition of FYK Y379 mutant phosphorylation in human MDA-MB-231 cells by in-cell western blot assay; type: cell-based

Chain of Focal adhesion kinase 1 (Q05397 whole entry): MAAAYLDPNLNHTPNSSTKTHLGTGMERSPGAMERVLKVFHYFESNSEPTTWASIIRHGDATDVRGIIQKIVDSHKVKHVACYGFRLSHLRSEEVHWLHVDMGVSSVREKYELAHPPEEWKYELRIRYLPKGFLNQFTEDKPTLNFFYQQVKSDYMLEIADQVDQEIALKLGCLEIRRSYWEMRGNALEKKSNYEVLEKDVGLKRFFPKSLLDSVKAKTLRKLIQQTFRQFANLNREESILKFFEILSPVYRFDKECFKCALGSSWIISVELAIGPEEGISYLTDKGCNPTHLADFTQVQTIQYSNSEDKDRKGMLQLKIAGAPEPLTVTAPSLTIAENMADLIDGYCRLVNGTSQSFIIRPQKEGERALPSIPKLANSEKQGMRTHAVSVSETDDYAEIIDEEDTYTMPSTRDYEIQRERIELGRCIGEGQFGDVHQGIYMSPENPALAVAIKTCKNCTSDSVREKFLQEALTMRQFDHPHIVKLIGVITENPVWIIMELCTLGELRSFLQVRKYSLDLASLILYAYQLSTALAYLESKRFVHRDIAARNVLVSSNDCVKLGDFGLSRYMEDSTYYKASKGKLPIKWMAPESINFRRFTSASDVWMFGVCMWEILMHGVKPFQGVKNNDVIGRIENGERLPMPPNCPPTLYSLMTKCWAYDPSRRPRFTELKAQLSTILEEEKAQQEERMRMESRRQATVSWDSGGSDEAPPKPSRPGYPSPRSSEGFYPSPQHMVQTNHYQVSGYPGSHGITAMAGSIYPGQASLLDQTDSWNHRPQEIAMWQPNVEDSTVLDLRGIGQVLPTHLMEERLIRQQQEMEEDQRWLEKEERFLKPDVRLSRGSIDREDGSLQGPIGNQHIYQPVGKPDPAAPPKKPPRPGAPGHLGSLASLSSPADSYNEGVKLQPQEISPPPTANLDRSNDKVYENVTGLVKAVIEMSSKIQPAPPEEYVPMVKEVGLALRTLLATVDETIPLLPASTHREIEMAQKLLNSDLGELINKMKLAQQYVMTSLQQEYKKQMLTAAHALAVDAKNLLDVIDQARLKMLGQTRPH

| IC50 (Focal adhesion kinase 1) [nM] | GI50 (HCT-116; Homo sapiens, HCT-116) [nM] | GI50 (MDA-MB-231; Homo sapiens, MDA-MB-231) [nM] | remaining at 1 h, 1 µM [2] [%] | inhibition at 10 µM (CYP1A2) [%] | inhibition at 10 µM (CYP2C9) [%] | inhibition at 10 µM (CYP2C19) [%] | inhibition at 10 µM (CYP2D6) [%] | inhibition at 10 µM (CYP3A4) [%] | IC50 [3] [nM] | GI50 (BaF3 [4]; Mus musculus, BaF3) [nM] | GI50 (BaF3 [5]; Mus musculus, BaF3) [nM] | GI50 (BaF3 [6]; Mus musculus, BaF3) [nM] | GI50 (BaF3 [7]; Mus musculus, BaF3) [nM] | GI50 (BaF3 [8]; Mus musculus, BaF3) [nM] | GI50 (BaF3 [9]; Mus musculus, BaF3) [nM] | Compound | GI50 ([1]; Homo sapiens, A375P) [nM] | other results |
| --- | --- | --- | --- | --- | --- | --- | --- | --- | --- | --- | --- | --- | --- | --- | --- | --- | --- | --- |
| 33 | 340 | 530 | 73.4 | 67.9 | 74.1 | 75.7 | 91.3 | 59.6 | < 0.5 | 46.3 | 23.2 | 9.4 | 223 | 568 | 371 | CCN1CCN(c2ccc(Nc3ncc4scc(-c5cccc(N6CCCS6(=O)=O)c5)c4n3)cc2)CC1 | 410 | – |
| – | – | – | – | – | – | – | – | – | – | 2.8 | 206 | 56.5 | 1540 | 2640 | 5420 | CNC(=O)c1cc(Oc2ccc(NC(=O)Nc3ccc(Cl)c(C(F)(F)F)c3)cc2)ccn1 [SORAFENIB] | – | Activity (MV4-11): Active |
| 54 | 170 | 570 | 89.3 | 67.3 | 91.7 | 76.5 | 89.4 | 76 | < 0.5 | 20.8 | 32.3 | 6.2 | 57.7 | 142 | 647 | CCN1CCN(c2ccc(Nc3ncc4scc(-c5ccc6cc[nH]c6c5)c4n3)cc2)CC1 | 500 | – |
| 12 | 250 | 460 | 100 | 67.5 | 63.2 | 57.5 | 84.7 | 57.3 | < 0.5 | 7.4 | 11 | 1.6 | 103 | 183 | 550 | CS(=O)(=O)Nc1cccc(-c2csc3cnc(Nc4ccc(N5CCNCC5)cc4)nc23)c1 | 490 | – |
| 10 | 1140 | 630 | 92.6 | 30.9 | 92.1 | 96.5 | 84.1 | 81 | < 0.5 | 10.8 | 153 | 2.2 | 67.5 | 192 | 174 | CCN1CCN(c2ccc(Nc3ncc4scc(-c5ccccc5)c4n3)cc2)CC1 | 400 | – |

| Compound | IC50 (Focal adhesion kinase 1) [nM] | GI50 (HCT-116; Homo sapiens, HCT-116) [nM] | GI50 (MDA-MB-231; Homo sapiens, MDA-MB-231) [nM] | remaining at 1 h, 1 µM [2] [%] | inhibition at 10 µM (CYP1A2) [%] | inhibition at 10 µM (CYP2C9) [%] | inhibition at 10 µM (CYP2C19) [%] | inhibition at 10 µM (CYP2D6) [%] | inhibition at 10 µM (CYP3A4) [%] | IC50 [3] [nM] | GI50 (BaF3 [4]; Mus musculus, BaF3) [nM] | GI50 (BaF3 [5]; Mus musculus, BaF3) [nM] | GI50 (BaF3 [6]; Mus musculus, BaF3) [nM] | GI50 (BaF3 [7]; Mus musculus, BaF3) [nM] | GI50 (BaF3 [8]; Mus musculus, BaF3) [nM] | GI50 (BaF3 [9]; Mus musculus, BaF3) [nM] | GI50 ([1]; Homo sapiens, A375P) [nM] | other results |
| --- | --- | --- | --- | --- | --- | --- | --- | --- | --- | --- | --- | --- | --- | --- | --- | --- | --- | --- |
| CS(=O)(=O)Nc1cccc(-c2csc3cnc(Nc4ccc(N5CCOCC5)cc4)nc23)c1 | 8 | – | – | 79.5 | – | – | – | – | – | < 0.5 | – | – | – | – | – | – | – | GI50 (HCT-116): 410 nM; GI50 (MDA-MB-231): 400 nM; GI50 [1]: 1570 nM; IC50 [10]: 260 nM; GI50 (BaF3 [4]): 9.5 nM; GI50 (BaF3 [5]): 10.3 nM; GI50 (BaF3 [6]): 1.7 nM; GI50 (BaF3 [7]): 104 nM; GI50 (BaF3 [8]): 365 nM; GI50 (BaF3 [9]): 510 nM |
